Experiments:
smallflower flatsedge = experiment: Test B flood test smallflower flatsedge; format: in vivo, Cyperus difformis
Method in brief: (§1)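 Read-out is a visual response score from 0 (no effect) to 10 (complete control), assigned by comparison with untreated controls. Treatment was applied at the 2-leaf stage, and plants stayed in the greenhouse for twelve to sixteen days before scoring.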

bamyardgrass = experiment: Test B flood test barnyardgrass; format: in vivo, Echinochloa crus-galli
Method in brief: as §1

wild oat = experiment: Test B pre/postemergence wild oat; format: in vivo, Avena fatua
Method in brief: (§2)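 Test chemicals in a non-phytotoxic solvent mixture with surfactant were sprayed preemergence onto planted seeds and postemergence onto plants 2 to 18 cm tall (1- to 4-leaf stage). After twelve to sixteen days in a greenhouse, injury was visually rated against untreated controls from 0 (no effect) to 10 (complete control).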

surinam grass = experiment: Test B pre/postemergence surinam grass; format: in vivo, Brachiaria decumbens
Method in brief: as §2

sugar beet = experiment: Test B pre/postemergence sugar beet; format: in vivo, Beta vulgaris
Method in brief: as §2

cocklebur = experiment: Test B pre/postemergence cocklebur; format: in vivo, Xanthium strumarium
Method in brief: as §2

crabgrass = experiment: Test B pre/postemergence crabgrass; format: in vivo, Digitaria sanguinalis
Method in brief: as §2

pigweed = experiment: Test B pre/postemergence pigweed; format: in vivo, Amaranthus retroflexus
Method in brief: as §2

corn = experiment: Test B pre/postemergence corn; format: in vivo, Zea mays
Method in brief: as §2

duck salad = experiment: Test B flood test duck salad; format: in vivo, Heteranthera limosa
Method in brief: as §1

wheat = experiment: Test B pre/postemergence wheat; format: in vivo, Triticum aestivum
Method in brief: as §2

giant foxtail = experiment: Test B pre/postemergence giant foxtail; format: in vivo, Setaria faberii
Method in brief: as §2

purple nutsedge = experiment: Test B pre/postemergence purple nutsedge; format: in vivo, Cyperus rotundus
Method in brief: as §2

rape = experiment: Test B pre/postemergence rape; format: in vivo, Brassica napus
Method in brief: as §2

rice = experiment: Test B flood test rice; format: in vivo, Oryza sativa
Method in brief: as §1

morningglory = experiment: Test B pre/postemergence morningglory; format: in vivo, Ipomoea hederacea
Method in brief: as §2

[1] = Rate 16 g/ha, head printed Pre-emergence (flood test species), scale 0 to 10, 0 no effect, 10 complete control
[2] = Rate 31 g/ha, Pre-emergence section (flood test species), scale 0 to 10
[3] = Rate 62 g/ha, headed Pre-emergence (flood test species), scale 0 to 10 (0 no effect, 10 complete control)
[4] = Rate 125 g/ha, Pre-emergence, flood test species, scale 0 to 10 where 0 is no effect and 10 is complete control
[5] = Rate 250 g/ha, Pre-emergence, flood-test species, scale 0 to 10, 0 is no effect, 10 is complete control
[6] = Rate 500 g/ha, Pre-emergence, flood test species, scale 0 to 10 (0 no effect, 10 complete control)
[7] = Postemergence, Rate 31 g/ha, visual rating, scale 0 to 10 (0 no effect, 10 complete control)
[8] = Preemergence, Rate 31 g/ha, visual rating, scale 0 to 10 (0 no effect, 10 complete control)
[9] = Preemergence, Rate 62 g/ha, scale of 0 to 10 where 0 is no effect and 10 is complete control
[10] = Rate 16 g/ha, Postemergence, scale 0 to 10, 0 no effect, 10 complete control
[11] = Rate 16 g/ha, Preemergence, scale 0 to 10, 0 no effect, 10 complete control
[12] = Rate 62 g/ha, Postemergence, scale 0 to 10 (0 no effect, 10 complete control)
[13] = Rate 125 g/ha, Postemergence, scale of 0 to 10 where 0 is no effect and 10 is complete control
[14] = Rate 125 g/ha, Preemergence, scale of 0 to 10 where 0 is no effect and 10 is complete control

For `CCCCCn1c(=O)on(C(=O)N(c2ccc(F)cc2)C(C)C)c1=O` [Compound 290], which “S. Flatsedge plant response rating” value (smallflower flatsedge; [1]) is on record?
The value was 0.

What about the “S. Flatsedge plant response rating” value (smallflower flatsedge; [2]) of the same compound?
The value was 0.

What about the “S. Flatsedge plant response rating” value (smallflower flatsedge; [3]) of the same compound?
Its value is 0.

And the “S. Flatsedge plant response rating” value (smallflower flatsedge; [4])?
Its value is 2.

And the “S. Flatsedge plant response rating” value (smallflower flatsedge; [5])?
Its value is 0.

What about the “S. Flatsedge plant response rating” value (smallflower flatsedge; [6]) of the same compound?
The value was 0.

What about the “Barnyardgrass plant response rating” value (bamyardgrass; [1]) of the same compound?
Its value is 0.

And the “Barnyardgrass plant response rating” value (bamyardgrass; [2])?
Its value is 6.

What about the “Barnyardgrass plant response rating” value (bamyardgrass; [3]) of the same compound?
The value was 3.

What about the “Barnyardgrass plant response rating” value (bamyardgrass; [4]) of the same compound?
The value was 4.

What about the “Barnyardgrass plant response rating” value (bamyardgrass; [5]) of the same compound?
The value was 4.

And the “Barnyardgrass plant response rating” value (bamyardgrass; [6])?
Its value is 5.

What about the “Wild oats plant response rating” value (wild oat; [7]) of the same compound?
The value was 0.

What about the “Wild oats plant response rating” value (wild oat; [8]) of the same compound?
Its value is 0.

What about the “Wild oats plant response rating” value (wild oat; [9]) of the same compound?
Its value is 0.

What about the “Wild oats plant response rating” value (wild oat; [10]) of the same compound?
Its value is 0.

And the “Wild oats plant response rating” value (wild oat; [11])?
The value was 0.

And the “Wild oats plant response rating” value (wild oat; [12])?
Its value is 0.

What about the “Wild oats plant response rating” value (wild oat; [13]) of the same compound?
The value was 0.

What about the “B. signalgrass plant response rating” value (surinam grass; [7]) of the same compound?
The value was 0.

And the “B. signalgrass plant response rating” value (surinam grass; [8])?
The value was 0.

What about the “B. signalgrass plant response rating” value (surinam grass; [9]) of the same compound?
The value was 0.

And the “B. signalgrass plant response rating” value (surinam grass; [10])?
Its value is 0.

And the “B. signalgrass plant response rating” value (surinam grass; [11])?
The value was 0.

What about the “B. signalgrass plant response rating” value (surinam grass; [12]) of the same compound?
Its value is 0.

And the “B. signalgrass plant response rating” value (surinam grass; [13])?
The value was 0.

What about the “B. signalgrass plant response rating” value (surinam grass; [14]) of the same compound?
Its value is 0.

And the “Sugarbeets plant response rating” value (sugar beet; [7])?
Its value is 0.

And the “Sugarbeets plant response rating” value (sugar beet; [8])?
The value was 0.

And the “Sugarbeets plant response rating” value (sugar beet; [9])?
The value was 2.

And the “Sugarbeets plant response rating” value (sugar beet; [10])?
The value was 0.

And the “Sugarbeets plant response rating” value (sugar beet; [11])?
The value was 0.

And the “Sugarbeets plant response rating” value (sugar beet; [12])?
Its value is 0.

And the “Sugarbeets plant response rating” value (sugar beet; [13])?
The value was 0.

What about the “Sugarbeets plant response rating” value (sugar beet; [14]) of the same compound?
The value was 5.

What about the “Cocklebur plant response rating” value (cocklebur; [7]) of the same compound?
The value was 0.

And the “Cocklebur plant response rating” value (cocklebur; [8])?
Its value is 0.

What about the “Cocklebur plant response rating” value (cocklebur; [9]) of the same compound?
Its value is 0.

What about the “Cocklebur plant response rating” value (cocklebur; [10]) of the same compound?
Its value is 0.

What about the “Cocklebur plant response rating” value (cocklebur; [11]) of the same compound?
Its value is 0.

And the “Cocklebur plant response rating” value (cocklebur; [12])?
Its value is 0.

And the “Cocklebur plant response rating” value (cocklebur; [13])?
Its value is 0.

What about the “Cocklebur plant response rating” value (cocklebur; [14]) of the same compound?
Its value is 0.

And the “Crabgrass plant response rating” value (crabgrass; [7])?
Its value is 0.

And the “Crabgrass plant response rating” value (crabgrass; [8])?
The value was 0.

And the “Crabgrass plant response rating” value (crabgrass; [9])?
The value was 1.

What about the “Crabgrass plant response rating” value (crabgrass; [10]) of the same compound?
The value was 0.

What about the “Crabgrass plant response rating” value (crabgrass; [11]) of the same compound?
The value was 0.

What about the “Crabgrass plant response rating” value (crabgrass; [12]) of the same compound?
Its value is 0.

What about the “Crabgrass plant response rating” value (crabgrass; [13]) of the same compound?
Its value is 0.

What about the “Crabgrass plant response rating” value (crabgrass; [14]) of the same compound?
Its value is 3.

And the “Redroot pigweed plant response rating” value (pigweed; [7])?
Its value is 0.

And the “Redroot pigweed plant response rating” value (pigweed; [8])?
Its value is 0.

And the “Redroot pigweed plant response rating” value (pigweed; [9])?
The value was 2.

What about the “Redroot pigweed plant response rating” value (pigweed; [10]) of the same compound?
The value was 0.

And the “Redroot pigweed plant response rating” value (pigweed; [11])?
Its value is 0.

And the “Redroot pigweed plant response rating” value (pigweed; [12])?
The value was 0.

And the “Redroot pigweed plant response rating” value (pigweed; [13])?
The value was 0.

And the “Redroot pigweed plant response rating” value (pigweed; [14])?
The value was 7.

What about the “Corn plant response rating” value (corn; [7]) of the same compound?
Its value is 0.

What about the “Corn plant response rating” value (corn; [8]) of the same compound?
The value was 0.

What about the “Corn plant response rating” value (corn; [9]) of the same compound?
Its value is 0.

What about the “Corn plant response rating” value (corn; [10]) of the same compound?
The value was 0.

And the “Corn plant response rating” value (corn; [11])?
Its value is 0.

What about the “Corn plant response rating” value (corn; [12]) of the same compound?
Its value is 0.

What about the “Corn plant response rating” value (corn; [13]) of the same compound?
Its value is 0.

What about the “Corn plant response rating” value (corn; [14]) of the same compound?
Its value is 0.

And the “Ducksalad plant response rating” value (duck salad; [1])?
The value was 0.

What about the “Ducksalad plant response rating” value (duck salad; [2]) of the same compound?
Its value is 0.

What about the “Ducksalad plant response rating” value (duck salad; [3]) of the same compound?
The value was 0.

And the “Ducksalad plant response rating” value (duck salad; [4])?
Its value is 0.

And the “Ducksalad plant response rating” value (duck salad; [5])?
Its value is 0.

And the “Ducksalad plant response rating” value (duck salad; [6])?
Its value is 0.

What about the “Wheat plant response rating” value (wheat; [7]) of the same compound?
Its value is 0.

And the “Wheat plant response rating” value (wheat; [8])?
Its value is 0.

And the “Wheat plant response rating” value (wheat; [9])?
Its value is 0.

And the “Wheat plant response rating” value (wheat; [10])?
Its value is 0.

And the “Wheat plant response rating” value (wheat; [11])?
The value was 0.

What about the “Wheat plant response rating” value (wheat; [12]) of the same compound?
The value was 0.

What about the “Wheat plant response rating” value (wheat; [13]) of the same compound?
The value was 0.

And the “Wheat plant response rating” value (wheat; [14])?
Its value is 0.

And the “Giant foxtail plant response rating” value (giant foxtail; [7])?
The value was 0.

And the “Giant foxtail plant response rating” value (giant foxtail; [8])?
The value was 2.

What about the “Giant foxtail plant response rating” value (giant foxtail; [9]) of the same compound?
The value was 8.

And the “Giant foxtail plant response rating” value (giant foxtail; [10])?
The value was 0.

What about the “Giant foxtail plant response rating” value (giant foxtail; [11]) of the same compound?
Its value is 2.

What about the “Giant foxtail plant response rating” value (giant foxtail; [12]) of the same compound?
The value was 0.

What about the “Giant foxtail plant response rating” value (giant foxtail; [13]) of the same compound?
Its value is 0.

What about the “Giant foxtail plant response rating” value (giant foxtail; [14]) of the same compound?
Its value is 9.

And the “Nutsedge plant response rating” value (purple nutsedge; [7])?
The value was 0.

What about the “Nutsedge plant response rating” value (purple nutsedge; [8]) of the same compound?
The value was 0.

What about the “Nutsedge plant response rating” value (purple nutsedge; [9]) of the same compound?
Its value is 0.

And the “Nutsedge plant response rating” value (purple nutsedge; [10])?
The value was 0.

What about the “Nutsedge plant response rating” value (purple nutsedge; [11]) of the same compound?
Its value is 0.

What about the “Nutsedge plant response rating” value (purple nutsedge; [12]) of the same compound?
Its value is 0.

And the “Nutsedge plant response rating” value (purple nutsedge; [13])?
Its value is 0.

And the “Rape plant response rating” value (rape; [7])?
Its value is 0.

What about the “Rape plant response rating” value (rape; [8]) of the same compound?
Its value is 0.

What about the “Rape plant response rating” value (rape; [9]) of the same compound?
The value was 0.

What about the “Rape plant response rating” value (rape; [10]) of the same compound?
The value was 0.

What about the “Rape plant response rating” value (rape; [11]) of the same compound?
The value was 0.

And the “Rape plant response rating” value (rape; [12])?
The value was 0.

And the “Rape plant response rating” value (rape; [13])?
Its value is 0.

And the “Rape plant response rating” value (rape; [14])?
Its value is 0.

And the “Rice plant response rating” value (rice; [1])?
Its value is 0.

What about the “Rice plant response rating” value (rice; [2]) of the same compound?
Its value is 0.

And the “Rice plant response rating” value (rice; [3])?
Its value is 0.

What about the “Rice plant response rating” value (rice; [4]) of the same compound?
The value was 0.

And the “Rice plant response rating” value (rice; [5])?
The value was 0.

What about the “Rice plant response rating” value (rice; [6]) of the same compound?
The value was 0.

And the “Morningglory plant response rating” value (morningglory; [7])?
The value was 4.

What about the “Morningglory plant response rating” value (morningglory; [8]) of the same compound?
The value was 0.

What about the “Morningglory plant response rating” value (morningglory; [9]) of the same compound?
Its value is 0.

And the “Morningglory plant response rating” value (morningglory; [10])?
The value was 3.

And the “Morningglory plant response rating” value (morningglory; [11])?
Its value is 0.

What about the “Morningglory plant response rating” value (morningglory; [12]) of the same compound?
The value was 4.

What about the “Morningglory plant response rating” value (morningglory; [13]) of the same compound?
The value was 6.

And the “Morningglory plant response rating” value (morningglory; [14])?
The value was 0.

Reference: patent publication US6737383B1, “Herbicidal oxadiazolidines” (priority 1999, dated 2004)
